Assay results published in patent US20030166622A1, “Vitamin D derivatives with acyloxy groups in the side chains, process for their production, and the use for the production of pharmaceutical agents” (Schering AG, priority 2001, published 2003).
“Also recorded” adds a separate entry of the source.

What was measured:
[1] = DNFB-induced allergic contact allergy in the mouse (DNFB-DTH); assay type: in vivo; conditions: for DR (Hypercalcemic threshold dose/ immunosuppressive threshold dose): therapeutic range, mouse, once daily intragastrically around sensitization, calcium level in urine as side-effect parameter; for activity in vivo (prevention of the formation of edemas): contact allergy in the mouse
Description: 58, 179-204 (1999)]. The model of the dinitrofluorobenzene (DNFB)-induced allergic contact allergy in the mouse represents an inflammatory skin disease with the background of an inflammatory reaction of the delayed type (delayed type hypersensitivity; DTH). The inflammatory phase of the contact allergy is triggered by a multi-phase reaction. A repeated contact with the topically effective contact allergen DNFB (25 il of a 0.5% (w/v) DNFB solution in acetone/olive oil 4:1 [v/v] on the shaved abdomen with a surface area of about 10 cm^2 on test days 0. and 1.) triggers an immune reaction, which results in the sensitization of the animals against the specific agent, without “visible” symptoms occurring. Only after a sensitization time of 4-5 days, in which populations of DNFB-specific lymphocytes of “memory” type have formed in the draining lymph nodes, can a renewed contact (20 il of a 0.5% (w/v) DNFB solution in acetone/olive oil 4:1 [v/v]) trigger an inflammatory skin reaction with the contact allergen at any skin area (here: on both ears, treated surface area/ear about 2 cm^2). This second phase, which is also referred to as the trigger or “challenge,” ends in an eczematous lesion on the second contact site. The evaluation of the extent of the inflammatory reaction or the success of treatment is performed routinely 24 hours after the triggering, since at this time, the parameters that are to be analyzed (ear thickness and cell infiltration as a yardstick for the edema) have reached a plateau. The model of the DNFB-induced contact allergy allows the examination of the action of systemically or topically administered test substances with immunosuppressive/immunomodulating or inflammation-inhibiting properties. In the study on immunomodulating properties of calcitriol derivatives, the latter are administered once daily intragastrically in physiological common salt solution (0.9% NaCl) with an admixture of 0.085% Myrj 53) around the time of sensitization (beginning two days before and one day before sensitization, on the day of sensitization and on day 1 and 2 after sensitization). As side-effect parameters that are typical of vitamin D, the determination of the calcium level in the urine of the treated animals is used at the latest 24 hours after the last treatment with the substance. The calcium content is determined by flame-photometry. The significance of differences occurring between substance groups and controls as well as between test substance and reference substance are supported with suitable statistic processes. The therapeutic range of the test substances and calcitriol as a reference substance is indicated as a dose ratio DR (DR=factor of hypercalcemic threshold dose/immunosuppressive threshold dose).

HL 60 cells = assay: differentiation induction of HL 60 cells to macrophages (NBT reduction); assay type: cell-based, human; conditions: relative to calcitriol; 96 hours incubation
Procedure: The differentiation-stimulating action of calcitriol analogs is also detected quantitatively.
It is known in the literature [D. J. Mangelsdorf et al., J. Cell. Biol. 98, 391 (1984)] that the treatment of human leukemia cells (promyelocyte cell line HL 60) in vitro with calcitriol induces the differentiation of cells to macrophages.
HL 60 cells are cultivated in tissue culture medium (RPMI 10% fetal calf serum) at 37° C. in an atmosphere of 5% CO2 in air.
For substance testing, the cells are centrifuged off, and 2.0×10^5 cells/ml in phenol red-free tissue culture medium are taken up. The test substances are dissolved in ethanol and diluted to the desired concentration with tissue culture medium without phenol red. The dilution stages are mixed with the cell suspension at a ratio of 1:10, and 100 il each of this cell suspension that is mixed with substance is pipetted into an indentation of a 96-hole plate. For control, a cell suspension is mixed analogously with the solvent.
After incubation for 96 hours at 37° C. in 5% CO2 in air, 100 il of an NBT-TPA solution (nitro blue tetrazolium (NBT), final concentration in the batch of 1 mg/ml, tetradecanoyl phorbolmyristate-13-acetate (TPA), final concentration in the batch of 2×10^−7 mol/l) is pipetted into each indentation of the 96-hole plate in the cell suspension.
By incubation for 2 hours at 37° C. and 5% CO2 in air, NBT is reduced to insoluble formazan because of the intracellular oxygen radical release, stimulated by TPA, in the cells that are differentiated to macrophages.
To complete the reaction, the indentations of the 96-hole plate are suctioned off, and the cells are affixed to the bottom of the plate by adding methanol and dried after affixing. To dissolve the intracellular formazan crystals that are formed, 100 il of potassium hydroxide (2 mol/l) and 100 il of dimethyl sulfoxide are pipetted into each indentation and ultrasonically treated for 1 minute. The concentration of formazan is measured by spectrophotometry at 650 nm.
As a yardstick for the differentiation induction of HL 60 cells to macrophages, the concentration of formed formazan applies.

[2] = acute hypercalcemic action in rats (serum calcium after one-time subcutaneous administration); assay type: in vivo, rat; conditions: relative to calcitriol, male rats
Procedure: To determine the acute hypercalcemic action of various calcitriol derivatives, the test that is described below is carried out:
The action of control (solution base), reference substance (1,25-dihydroxy vitamin D3=calcitriol) and test substance is tested in each case after one-time subcutaneous administration in groups of 10 healthy male rats (140-170 g). During the testing time, the rats are kept in special cages to determine the excretion of water and mineral substances. Urine is collected in 2 fractions (0-16 hours and 16-22 hours). An oral dose of calcium (0.1 mmol of calcium in 6.5% alpha-hydroxypropyl cellulose, 5 ml/animal) replaces at 1600 hours the calcium intake that is lacking by food deprivation. At the end of the test, the animals are sacrificed by decapitation and exsanguinated to determine the serum-calcium values. For the primary screening test in vivo, an individual standard dose (200 ig/kg) is tested. For selected substances, the result is supported by establishing a dose-effect relation.
A hypercalcemic action is shown in serum-calcium level values that are higher than in the control.
The significance of differences occurring between substance groups and controls as well as between test substance and reference substance are supported with suitable statistical processes.

vitamin D receptor = molecular target: T1, vitamin D receptor (Sus scrofa, UniProt A3RGC1); assay: calcitriol-receptor test (competition with 3H-calcitriol, protein extract from intestines of juvenile pigs); conditions: for KF (competition factor: concentration of test substance / reference substance at 50% competition): relative to unlabeled calcitriol, 3H-calcitriol 5x10^-10 mol/l, 2 hours at 4° C; for activity in vitro: result in words, summary of the in vitro tests of the table (calcitriol-receptor test and HL 60)
T1 sequence (A3RGC1 1-427): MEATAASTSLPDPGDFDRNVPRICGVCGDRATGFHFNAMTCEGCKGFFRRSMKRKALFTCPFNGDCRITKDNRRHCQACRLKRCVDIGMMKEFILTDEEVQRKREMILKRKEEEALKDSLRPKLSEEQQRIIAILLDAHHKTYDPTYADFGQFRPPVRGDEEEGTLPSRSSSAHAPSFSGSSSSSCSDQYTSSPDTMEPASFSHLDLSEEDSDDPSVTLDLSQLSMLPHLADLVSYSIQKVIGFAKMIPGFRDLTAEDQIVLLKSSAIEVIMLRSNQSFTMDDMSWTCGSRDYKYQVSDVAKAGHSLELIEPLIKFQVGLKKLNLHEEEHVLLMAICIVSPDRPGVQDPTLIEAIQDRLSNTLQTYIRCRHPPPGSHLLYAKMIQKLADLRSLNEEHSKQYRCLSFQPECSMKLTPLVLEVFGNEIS
Procedure: It is carried out using a protein extract from the intestines of juvenile pigs. […] To this end, 250 il of a charcoal-dextran suspension is fed to each test tube and incubated at 4° C. for 20 minutes. Then, the samples are centrifuged at 10,000 g for 5 minutes at 4° C. The supernatant is decanted and measured in a á-counter after 1 hour of equilibration in Picofluor 15™.
The competition curves that are obtained at various concentrations of test substance as well as of reference substance (unlabeled calcitriol) at constant concentration of the reference substance (^3H-calcitriol) are placed in relation to one another, and a competition factor (KF) is determined.
It is defined as a quotient of the concentrations of the respective test substance and the reference substance, which are necessary for 50% competition:
KF=Concentration of test substance at 50% competition
Concentration of reference substance at 50% competition

SMILES	DR (Hypercalcemic threshold dose/ immunosuppressive threshold dose) [1]	DR (HL 60) (dose ratio test substance/reference substance for comparable semi-maximum actions) (HL 60 cells)	DR (Ca) (dose ratio for hypercalcemia, test substance dose/reference substance dose for comparable actions) [2]	KF (competition factor: concentration of test substance / reference substance at 50% competition) (vitamin D receptor)	activity in vitro (vitamin D receptor)	activity in vivo (prevention of the formation of edemas) ([1]; result in words)	therapeutic range (immunosuppressive threshold dose versus hypercalcemic threshold dose) ([1]; result in words, relative to compounds that have free hydroxy groups in the side chain)
C=C1C(=CC=C2CCCC3(C)C2CCC3C(C)C=CC(O)C2(c3ncc(CCCC)o3)CC2)CC(O)CC1O [(5Z,7E,22E)-(1S,3R,24R)-25-(5-butyloxazole-2-yl)-26,27-cyclo-9,10-secocholesta-5,7,10(19),22-tetraene-1,3,24-triol, reference compound]	1,000	–	–	–	–	–	–
C=C1/C(=C\C=C2/CCC[C@]3(C)[C@@H]([C@H](C)/C=C/[C@@H](O)C4(c5ncc(CCC)o5)CC4)CC[C@@H]23)C[C@@H](O)C[C@@H]1O [A, (5Z,7E,22E)-(1S,3R,24R)-25-(5-Propyloxazole-2-yl)-26,27-cyclo-9,10-secocholesta-5,7,10(19),22-tetraene-1,3,24-triol]	–	1.9	300	2	–	–	–
C=C1/C(=C\C=C2/CCC[C@]3(C)[C@@H]([C@H](C)/C=C/[C@@H](O)C4(c5ncc(C)o5)CC4)CC[C@@H]23)C[C@@H](O)C[C@@H]1O [B, (5Z,7E,22E)-(1S,3R,24R)-25-(5-Methyloxazole-2-yl)-26,27-cyclo-9,10-secocholesta-5,7,10(19),22-tetraene-1,3,24-triol]	–	3.4	>300	2	–	–	–
C=C1C(=CC=C2CCCC3(C)C2CCC3C(C)C=CC(O)C2(c3ncc(CC)o3)CC2)CC(O)CC1O [C, (5Z,7E,22E)-(1S,3R,24R)-25-(5-Ethyloxazole-2-yl)-26,27-cyclo-9,10-secocholesta-5,7,10(19),22-tetraene-1,3,24-triol]	–	1.3	>300	3	–	–	–
C=C1/C(=C\C=C2/CCC[C@]3(C)[C@@H]([C@H](C)CCCC(C)(C)O)CC[C@@H]23)C[C@@H](O)C[C@@H]1O [Calcitriol, 1,25-dihydroxy vitamin D3]	1	1	1	–	–	–	–
C=C1/C(=C\C=C2/CCC[C@]3(C)[C@@H]([C@H](C)CC[C@H](OC(C)=O)C4(c5ncc(CCCC)o5)CC4)CC[C@@H]23)C[C@@H](O)C[C@@H]1O [Compound 3a, (5Z,7E)-(1S,3R,24S)-24-Acetoxy-25-(5-butyloxazole-2-yl)-26,27-cyclo-9,10-secocholesta-5,7,10(19)-triene-1,3-diol]	–	>170	>1000	>100	inactivity; also recorded: deficient activity	therapeutically active in vivo	–
C=C1/C(=C\C=C2/CCC[C@]3(C)[C@@H]([C@H](C)CC[C@@H](OC(C)=O)C4(c5ncc(CCCC)o5)CC4)CC[C@@H]23)C[C@@H](O)C[C@@H]1O [Compound 3b, (5Z,7E)-(1S,3R,24R)-24-(Acetoxy)-25-(5-butyloxazole-2-yl)-26,27-cyclo-9,10-secocholesta-5,7,10(19)-triene-1,3-diol]	–	>170	>1000	>100	inactivity; also recorded: deficient activity	therapeutically active in vivo	–
C=C1/C(=C\C=C2/CCC[C@]3(C)[C@@H]([C@H](C)CC[C@@H](OC(=O)NC)C4(c5ncc(CCCC)o5)CC4)CC[C@@H]23)C[C@@H](O)C[C@@H]1O [Compound 11b, (5Z,7E)-(1S,3R,24R)-25-(5-Butyloxazole-2-yl)-24-[[(methylamino)-carbonyl]oxy]-26,27-cyclo-9,10-secocholesta-5,7,10(19)-triene-1,3-diol]	–	–	–	–	–	–	clearly improved
C=C1/C(=C\C=C2/CCC[C@]3(C)[C@@H]([C@H](C)/C=C/[C@@H](O)C4(c5ncc(CCCCC)o5)CC4)CC[C@@H]23)C[C@@H](O)C[C@@H]1O [D, (5Z,7E,22E)-(1S,3R,24R)-25-(5-Pentyloxazole-2-yl)-26,27-cyclo-9,10-secocholesta-5,7,10(19),22-tetraene-1,3,24-triol]	–	>100	>300	4	–	–	–
